What was measured:
paw twitch [1] = assay: Twitch depression (muscle relaxant effect) in anesthetized dogs; dog paw twitch; assay type: in vivo, mongrel dogs; details: Table V; for ED90: Canis lupus familiaris, iv, read-out: Equi-efficacious dose; for ED90 / Equi-efficacious dose: dog paw twitch; for Duration (DURAT.) / Onset / Recovery (RECOV.): dog, at equi-efficacious dose
Description: (§1) Mongrel dogs were injected with 50 mg/kg of pentobarbital until the onset of anesthesia as determined by the eyeblink reflex test. The injectable solutions prepared above were administered intravenously to the anesthesized mongrel dogs and measurements were made of the muscle relaxant effect including maximum twitch depression, onset, duration and recovery time in a clinically known manner. Each of the subjects were compared with a control animal receiving an injection of distilled water.

paw twitch [2] = assay: Twitch depression (muscle relaxant effect) in anesthetized rabbits; rabbit paw twitch; assay type: in vivo, New Zealand White rabbits; details: Table IV; for ED90: Oryctolagus cuniculus, read-out: Equi-efficacious dose; for ED90 / Equi-efficacious dose: rabbit paw twitch; for Duration (DURAT.) / Onset / Recovery (RECOV.): rabbit, at equi-efficacious dose
Description: [The procedure below names another organism; the source lists this organism under the same test.] as §1
The same compound of the present invention as in
A number of compounds in accordance with the present invention were tested for their neuromuscular blockade Properties. Specifically, the acid addition salts of the compounds were dissolved in sterile water for injection.

[3] = Cardiovascular change (HR, BP) at equi-efficacious dose in rabbits; assay type: in vivo; details: rabbit
[4] = Cardiovascular change (HR, BP) at equi-efficacious dose in dogs; assay type: in vivo; details: dog
neuromuscular blockade = details: background, in words; cited from earlier work
[5] = Table IV, at equi-efficacious dose
[6] = Table V, at equi-efficacious dose
[7] = depolarizer, based on twitch recovery not to-f

COc1cc2c(cc1OC)C(Cc1cc(OC)c(OC)c(OC)c1)[N+](C)(CCCOC(=O)CCC=CCCC(=O)OCCC[N+]1(C)CCc3cc(OC)c(OC)cc3C1Cc1cc(OC)c(OC)c(OC)c1)CC2 (stereo not drawn) [BW1090]
ED90 (paw twitch [1]): 0.39 mg/kg
Duration (DURAT.) (paw twitch [1]): 75.0 min
Onset (paw twitch [1]): 195.5 s
Recovery (RECOV.) (paw twitch [1]): 70.3 min
ED90 (paw twitch [2]): 0.504 mg/kg
Duration (DURAT.) (paw twitch [2]): 8.7 min
Onset (paw twitch [2]): 48.5 s
Recovery (RECOV.) (paw twitch [2]): 7.3 min
BP % [3, 5]: 1.2%
HR % [3, 5]: -0.4%
BP % [4, 6]: -3.1%
HR % [4, 6]: 0.7%

C[N+](C)(C)CCOC(=O)CCC(=O)OCC[N+](C)(C)C [succinylcholine]
ED90 (paw twitch [1]): 0.043 mg/kg
Onset (paw twitch [1]): 98.9 s
Duration (DURAT.) (paw twitch [1]; [7]): 8.8 min
Recovery (RECOV.) (paw twitch [1]; [7]): 5.4 min
ED90 (paw twitch [2]): 0.447 mg/kg
Onset (paw twitch [2]): 39.4 s
Duration (DURAT.) (paw twitch [2]; [7]): 18.6 min
Recovery (RECOV.) (paw twitch [2]; [7]): 18.6 min
BP % [3, 5]: -4.1%
HR % [3, 5]: 0.2%
BP % [4, 6]: 25.7%
HR % [4, 6]: 34.9%
reversibility by anticholinesterase drugs (neuromuscular blockade): not easily reversed by anticholinesterase drugs

CC(=O)O[C@H]1C[C@@H]2CC[C@@H]3[C@H](CC[C@@]4(C)[C@H]3C[C@H]([N+]3(C)CCCCC3)[C@@H]4OC(C)=O)[C@@]2(C)C[C@@H]1[N+]1(C)CCCCC1 [pancuronium]
ED90 (paw twitch [1]): 0.013 mg/kg
Duration (DURAT.) (paw twitch [1]): 45.7 min
Onset (paw twitch [1]): 169.0 s
Recovery (RECOV.) (paw twitch [1]): 35.6 min
ED90 (paw twitch [2]): 0.022 mg/kg
Duration (DURAT.) (paw twitch [2]): 32.5 min
Onset (paw twitch [2]): 147.5 s
Recovery (RECOV.) (paw twitch [2]): 17.4 min
BP % [3, 5]: 2.7%
HR % [3, 5]: 0.0%
BP % [4, 6]: -1.8%
HR % [4, 6]: 0.2%
duration of paralysis and recovery (neuromuscular blockade): maintain paralysis for an undesirably long time and the recovery period is slow

C[C@]12CC[C@@H]([N+]3(C)CCCC3)C[C@@H]1CC[C@@H]1[C@@H]2CC[C@@]2(C)[C@H]1CCC[N+]2(C)C.[Br-].[Br-] [RGH-4201]
Equi-efficacious dose (paw twitch [1]): 0.077 mg/kg
Duration (DURAT.) (paw twitch [1]): 28.3 min
Onset (paw twitch [1]): 123.6 s
Recovery (RECOV.) (paw twitch [1]): 22.0 min
Equi-efficacious dose (paw twitch [2]): 0.070 mg/kg
Duration (DURAT.) (paw twitch [2]): 7.7 min
Onset (paw twitch [2]): 35.4 s
Recovery (RECOV.) (paw twitch [2]): 6.1 min
BP % ([3]; in vivo): 2.6%
HR % ([3]; in vivo): 0.3%
BP % ([4]; in vivo): 1.4%
HR % ([4]; in vivo): 11.3%

COc1ccc(CC2c3cc(OC)c(OC)cc3CC[N+]2(C)CCC(=O)OCCCCCOC(=O)CC[N+]2(C)CCc3cc(OC)c(OC)cc3C2Cc2ccc(OC)c(OC)c2)cc1OC (stereo not drawn) [atracurium]
ED90 (paw twitch [1]): 0.086 mg/kg
Duration (DURAT.) (paw twitch [1]): 27.9 min
Onset (paw twitch [1]): 159.4 s
Recovery (RECOV.) (paw twitch [1]): 20.4 min
ED90 (paw twitch [2]): 0.046 mg/kg
Duration (DURAT.) (paw twitch [2]): 14.3 min
Onset (paw twitch [2]): 126.9 s
Recovery (RECOV.) (paw twitch [2]): 12.2 min
BP % ([3]; in vivo): -3.4%
HR % ([3]; in vivo): -1.0%
BP % ([4]; in vivo): 0.3%
HR % ([4]; in vivo): 3.3%

COc1cc2c3cc1Oc1cc(ccc1O)C[C@@H]1c4c(cc(OC)c(O)c4Oc4ccc(cc4)C[C@@H]3N(C)CC2)CC[N+]1(C)C [d-tubocurarine]
Equi-efficacious dose (paw twitch [1]): 0.254 mg/kg
Duration (DURAT.) (paw twitch [1]): 60.0 min
Onset (paw twitch [1]): 150.8 s
Recovery (RECOV.) (paw twitch [1]): 55.3 min
Equi-efficacious dose (paw twitch [2]): 0.229 mg/kg
Duration (DURAT.) (paw twitch [2]): 37.3 min
Onset (paw twitch [2]): 85.0 s
Recovery (RECOV.) (paw twitch [2]): 34.8 min
BP % [3, 5]: 4.8%
HR % [3, 5]: -0.3%
BP % [4, 6]: -25.8%
HR % [4, 6]: 8.7%
duration of paralysis and recovery (neuromuscular blockade): maintain paralysis for an undesirably long time and the recovery period is slow
